Source: paper PMC6934700, “Structure-Guided Design of a Fluorescent Probe for the Visualization of FtsZ in Clinically Important Gram-Positive and Gram-Negative Bacterial Pathogens” (Scientific Reports, 2019)
≈ marks a conversion by molar mass, not a printed value.

Experiments:
[1] = system: FtsZ in K. pneumoniae ATCC 13883 cells; assay: FtsZ visualization by fluorescence microscopy in live cells; format: cell-based, Klebsiella pneumoniae; details: 1 µg/mL for 5 minutes
Experimental: (§1) All differential interference contrast (DIC) and fluorescence microscopy experiments were conducted using an Olympus BX50 microscope equipped with an X-cite Exacte 200 W mercury lamp, a 100× Olympus UPLSAPO oil immersion objective (1.40 aperture), as well as both Chroma ET-EGFP (FITC/Cy2) and ET mCherry, Texas Red filters. Images were captured using a QImaging Retiga R3 charge-coupled device (CCD) camera and the Ocular-Version 2.0 software package (QImaging).
For visualizing FtsZ in Gram-negative bacteria using BOFP, E. coli ATCC 25922, K. pneumoniae ATCC 13883, P. aeruginosa ATCC 27853, and A. baumannii ATCC 19606 were grown to log-phase in CAMH broth. For each Gram-negative bacterial strain, a total of 1 mL of cell culture was centrifuged at 15,000 × g for 1 minute and washed twice with 1 mL of Tris-buffered saline (TBS) composed of 50 mM Tris-HCl (pH 7.6) and 150 mM NaCl. After the final wash, the pelleted cells were resuspended in 500 µL of TBS containing 1 µg/mL of BOFP and pentamidine isethionate (at 0.875 mg/mL for E. coli and 3.5 mg/mL for the other three strains). The resuspended cells were then incubated in the dark for 5 minutes at room temperature, centrifuged at 15,000 × g for 1 minute, washed twice with 1 mL of TBS, and subsequently resuspended in 200 µL of TBS. This final cell suspension was then prepared for microscopy as described for the Gram-positive bacterial strains. Comparative control experiments with 1 µg/mL BODIPY FL-COOH were conducted in K. pneumoniae ATCC 13883 cells as described above for BOFP.

[2] = system: FtsZ in S. agalactiae ATCC 12386 cells; assay: as above; format: cell-based, Streptococcus agalactiae; details: 1 µg/mL for 5 minutes
Experimental: as §1
(§2) For visualizing FtsZ in Gram-positive bacteria using BOFP, the bacterial cells were grown to log-phase in media suitable for each individual pathogen. Specifically, S. aureus NRS705 (MRSA) was grown in tryptic soy broth (TSB), E. faecalis ATCC 29212 and E. faecium ATCC 19434 were grown in lactobacilli MRS broth, S. agalactiae ATCC 12386 and S. pneumoniae ATCC 49619 were grown in TH broth, and S. pyogenes ATCC 19615 was grown in CAMH broth supplemented with 3% (v/v) LHB. For each Gram-positive bacterial strain, a total of 1 mL of cell culture was centrifuged at 15,000 × g for 1 minute and washed 2–3 times with 1 mL of PBS. After the final wash, the pelleted cells were resuspended in 500 µL of PBS containing 1 µg/mL of BOFP and incubated in the dark for 5 minutes at room temperature. The cells were then centrifuged at 15,000 × g for 1 minute, washed twice with 1 mL of PBS, and subsequently resuspended in 200 µL of PBS. […]

S. aureus NRS705 (MRSA) = assay: MIC assay by broth microdilution; format: cell-based, Staphylococcus aureus; details: Staphylococcus aureus; MRSA NRS705; TH broth; ≥90% growth inhibition after 18-24 hours
Experimental: MIC assays of 1, 3, and BOFP were conducted by standard broth microdilution in TH media. Briefly, log-phase S. aureus NRS705 (MRSA) cells were added to 96-well microtiter plates (at 5 × 10^5 CFU/mL) containing 2-fold serial dilutions of each test compound in 0.1 mL of TH broth, with each compound concentration being present in duplicate. The MIC is defined as the lowest compound concentration at which growth is ≥90% inhibited after 18-24 hours of aerobic growth.

[3] = system: FtsZ in S. pyogenes ATCC 19615 cells; assay: FtsZ visualization by fluorescence microscopy in live cells; format: cell-based, Streptococcus pyogenes; details: 1 µg/mL for 5 minutes
Experimental: as §1, §2

[4] = target: T1, FtsZ in S. aureus NRS705 cells (Staphylococcus aureus, UniProt P0A031); format: cell-based; details: 1 µg/mL for 5 minutes
T1 construct: endogenous in cells; host or cells: S. aureus NRS705 (USA100 MRSA)
Experimental: as §1, §2

T1 sequence (P0A031 whole entry): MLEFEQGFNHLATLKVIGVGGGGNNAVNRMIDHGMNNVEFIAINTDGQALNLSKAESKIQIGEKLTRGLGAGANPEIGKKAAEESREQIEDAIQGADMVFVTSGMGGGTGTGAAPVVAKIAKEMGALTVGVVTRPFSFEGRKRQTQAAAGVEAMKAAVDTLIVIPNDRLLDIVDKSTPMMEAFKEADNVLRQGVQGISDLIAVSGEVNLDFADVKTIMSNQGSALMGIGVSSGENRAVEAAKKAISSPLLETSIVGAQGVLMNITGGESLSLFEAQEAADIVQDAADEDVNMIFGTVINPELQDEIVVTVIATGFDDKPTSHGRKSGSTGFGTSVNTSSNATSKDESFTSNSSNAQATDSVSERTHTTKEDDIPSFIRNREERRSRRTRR

CC1=CC(C)=[N+]2C1=Cc1ccc(CCC(=O)OCC(Oc3ccc(F)c(C(N)=O)c3F)c3nc(-c4ccc(C(F)(F)F)cc4)c(Br)o3)n1[B-]2(F)F (stereo not drawn) [BOFP]
Fluorescence staining / FtsZ labeling in live cells ([1]; co-treated with 3.5 mg/mL pentamidine isethionate): bright fluorescence staining becomes visible both at midcell and along the cell periphery | Fluorescence staining / FtsZ labeling in live cells ([1]; without pentamidine isethionate): little or no FtsZ labeling | Fluorescence staining / FtsZ labeling in live cells [2]: bright bands of fluorescence staining are clearly visible at midcell | MIC (S. aureus NRS705 (MRSA)): 1 µg/mL (≈ 1.28 µM) | Fluorescence staining / FtsZ labeling in live cells [3]: bright bands of fluorescence staining are clearly visible at midcell | Fluorescence staining / FtsZ labeling in live cells [4]: bright bands of fluorescence staining are clearly visible at midcell
